Laboratory results published in patent US11739098B2 (BRISTOL-MYERS SQUIBB COMPANY, priority 2017, dated 2023).

Key:
Assay type in all cases: cell-based
human TLR7 = molecular target: T1, human TLR7 (Homo sapiens, UniProt Q9NYK1); experiment: TLR7 inhibition reporter assay (HEK-Blue cells, SEAP reporter, gardiquimod stimulation); conditions: HEK-Blue cells overexpressing human TLR7, SEAP reporter, gardiquimod 7.5 μM
T1 construct: host or cells: HEK-Blue cells (HEK293-derived reporter line)
T1 sequence (Q9NYK1 27-1049): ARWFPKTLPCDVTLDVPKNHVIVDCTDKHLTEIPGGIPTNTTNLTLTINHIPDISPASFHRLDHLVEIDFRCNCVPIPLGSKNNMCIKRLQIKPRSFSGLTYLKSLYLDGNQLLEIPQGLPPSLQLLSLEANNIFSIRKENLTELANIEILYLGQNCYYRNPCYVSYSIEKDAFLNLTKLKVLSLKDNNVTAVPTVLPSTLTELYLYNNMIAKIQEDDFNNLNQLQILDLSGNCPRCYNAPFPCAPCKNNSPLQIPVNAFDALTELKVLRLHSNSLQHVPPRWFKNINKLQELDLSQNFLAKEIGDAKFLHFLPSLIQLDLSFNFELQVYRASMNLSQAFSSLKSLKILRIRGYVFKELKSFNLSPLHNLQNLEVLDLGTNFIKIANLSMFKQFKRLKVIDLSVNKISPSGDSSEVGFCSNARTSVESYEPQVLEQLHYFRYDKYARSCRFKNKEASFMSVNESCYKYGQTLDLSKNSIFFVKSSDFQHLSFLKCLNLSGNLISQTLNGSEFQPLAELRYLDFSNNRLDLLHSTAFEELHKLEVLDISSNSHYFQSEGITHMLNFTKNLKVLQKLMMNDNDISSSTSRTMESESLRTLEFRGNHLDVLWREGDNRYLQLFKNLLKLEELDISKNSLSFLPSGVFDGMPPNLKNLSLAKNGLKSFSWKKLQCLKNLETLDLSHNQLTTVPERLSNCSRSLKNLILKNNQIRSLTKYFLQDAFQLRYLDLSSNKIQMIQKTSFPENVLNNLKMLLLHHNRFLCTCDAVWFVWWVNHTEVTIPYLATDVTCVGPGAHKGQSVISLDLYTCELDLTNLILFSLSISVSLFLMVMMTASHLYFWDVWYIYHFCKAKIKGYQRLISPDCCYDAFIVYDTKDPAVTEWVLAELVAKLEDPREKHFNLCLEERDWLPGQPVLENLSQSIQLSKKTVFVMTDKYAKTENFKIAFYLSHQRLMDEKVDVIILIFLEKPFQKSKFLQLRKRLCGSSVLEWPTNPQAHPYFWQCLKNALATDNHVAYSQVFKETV
In short: (§1)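 After 22 h at 37 °C, SEAP secretion was measured from human TLR7-, TLR8- or TLR9-expressing HEK-Blue reporter cells given compound (0.05 nM–50 μM) 30 min before agonist: 7.5 μM gardiquimod, 15.9 μM R848 or 5 nM ODN2006 respectively. Percent inhibition referenced to agonist-plus-DMSO and known-inhibitor wells.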

human TLR9 = molecular target: T2, human TLR9 (Homo sapiens, UniProt Q9NR96); experiment: TLR9 inhibition reporter assay (HEK-Blue cells, SEAP reporter, ODN2006 stimulation); conditions: HEK-Blue cells overexpressing human TLR9, SEAP reporter, ODN2006 5 nM
T2 construct: host or cells: HEK-Blue cells (HEK293-derived reporter line)
T2 sequence (Q9NR96 26-1032): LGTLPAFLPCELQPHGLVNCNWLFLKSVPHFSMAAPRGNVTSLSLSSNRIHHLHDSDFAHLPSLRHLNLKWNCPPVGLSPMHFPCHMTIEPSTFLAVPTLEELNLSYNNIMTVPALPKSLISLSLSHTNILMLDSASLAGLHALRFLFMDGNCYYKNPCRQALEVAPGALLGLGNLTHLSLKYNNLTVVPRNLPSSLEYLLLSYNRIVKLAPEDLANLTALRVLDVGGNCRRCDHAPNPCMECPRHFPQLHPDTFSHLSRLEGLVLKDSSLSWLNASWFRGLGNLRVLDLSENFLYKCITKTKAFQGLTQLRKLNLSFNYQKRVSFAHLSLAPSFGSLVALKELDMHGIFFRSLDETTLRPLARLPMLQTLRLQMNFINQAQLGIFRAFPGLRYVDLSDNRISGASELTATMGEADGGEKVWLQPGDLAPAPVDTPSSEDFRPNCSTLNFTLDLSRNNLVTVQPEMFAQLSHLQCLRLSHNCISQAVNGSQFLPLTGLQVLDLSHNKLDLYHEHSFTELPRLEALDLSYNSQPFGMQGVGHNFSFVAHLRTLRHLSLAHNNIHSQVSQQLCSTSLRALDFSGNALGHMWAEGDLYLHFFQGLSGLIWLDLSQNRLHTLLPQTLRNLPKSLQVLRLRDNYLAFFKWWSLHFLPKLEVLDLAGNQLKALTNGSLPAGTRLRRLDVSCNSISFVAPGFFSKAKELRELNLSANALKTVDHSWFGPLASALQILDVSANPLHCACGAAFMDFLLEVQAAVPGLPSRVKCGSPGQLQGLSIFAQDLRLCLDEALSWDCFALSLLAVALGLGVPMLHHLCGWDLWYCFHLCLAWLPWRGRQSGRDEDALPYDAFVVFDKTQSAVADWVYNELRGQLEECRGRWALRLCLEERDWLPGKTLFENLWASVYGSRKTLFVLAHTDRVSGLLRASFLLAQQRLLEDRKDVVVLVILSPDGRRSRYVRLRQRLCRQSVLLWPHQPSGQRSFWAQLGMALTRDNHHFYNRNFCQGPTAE
In short: as §1

human TLR8 = molecular target: T3, human TLR8 (Homo sapiens, UniProt Q9NR97); experiment: TLR8 inhibition reporter assay (HEK-Blue cells, SEAP reporter, R848 stimulation); conditions: HEK-Blue cells overexpressing human TLR8, SEAP reporter, R848 15.9 μM
T3 construct: host or cells: HEK-Blue cells (HEK293-derived reporter line)
T3 sequence (Q9NR97 27-1041): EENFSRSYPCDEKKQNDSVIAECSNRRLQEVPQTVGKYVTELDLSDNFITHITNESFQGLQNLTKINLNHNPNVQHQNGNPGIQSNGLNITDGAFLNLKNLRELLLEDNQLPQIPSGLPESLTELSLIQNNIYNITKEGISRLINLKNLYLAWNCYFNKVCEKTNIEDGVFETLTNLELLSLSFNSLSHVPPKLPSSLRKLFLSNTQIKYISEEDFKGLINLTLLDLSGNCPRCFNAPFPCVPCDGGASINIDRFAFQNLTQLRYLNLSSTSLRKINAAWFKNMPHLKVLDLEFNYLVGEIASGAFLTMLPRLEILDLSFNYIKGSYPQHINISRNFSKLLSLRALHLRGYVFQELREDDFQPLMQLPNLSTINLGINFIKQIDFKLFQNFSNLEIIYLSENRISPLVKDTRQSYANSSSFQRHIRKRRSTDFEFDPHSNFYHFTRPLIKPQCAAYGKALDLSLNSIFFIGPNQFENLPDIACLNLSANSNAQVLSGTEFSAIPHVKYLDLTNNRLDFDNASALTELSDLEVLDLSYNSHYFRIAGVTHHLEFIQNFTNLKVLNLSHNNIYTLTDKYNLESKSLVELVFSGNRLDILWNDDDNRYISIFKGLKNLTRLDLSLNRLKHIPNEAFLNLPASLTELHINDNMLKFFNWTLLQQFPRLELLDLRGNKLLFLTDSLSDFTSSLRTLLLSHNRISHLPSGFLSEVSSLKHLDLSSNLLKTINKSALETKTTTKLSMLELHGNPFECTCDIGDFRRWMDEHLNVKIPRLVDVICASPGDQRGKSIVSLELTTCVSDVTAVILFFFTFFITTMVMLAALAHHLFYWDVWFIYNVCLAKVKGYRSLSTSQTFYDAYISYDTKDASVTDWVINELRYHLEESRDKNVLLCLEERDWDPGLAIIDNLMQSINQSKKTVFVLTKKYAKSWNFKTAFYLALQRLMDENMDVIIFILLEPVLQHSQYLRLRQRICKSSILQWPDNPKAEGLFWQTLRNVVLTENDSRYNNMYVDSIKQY
In short: as §1

SMILES	IC50 (human TLR7)	IC50 (human TLR9)	IC50 (human TLR8)
Cc1cc(-c2[nH]c3ccc(C4CCN(C5CCS(=O)(=O)CC5)CC4)cc3c2C(C)C)cc2cccnc12 [Example 800, 4-(4-(3-isopropyl-2-(8-methylquinolin-6-yl)-1H-indol-5-yl)piperidin-1-yl)tetrahydro-2H-thiopyran 1,1-dioxide]	< 0.1 µM	1 to 50 µM	0.1 to 1 µM
Cc1c(-c2ccnc3[nH]ncc23)[nH]c2ccc(C3CCNCC3)cc12 [Example 231, 4-(3-methyl-5-(piperidin-4-yl)-1H-indol-2-yl)-1H-pyrazolo[3,4-b]pyridine]	0.1 to 1 µM	1 to 50 µM	0.1 to 1 µM
CCc1c(-c2ccnc3[nH]ncc23)[nH]c2ccc(C3CCN(C4CCN(C(C)C)CC4)CC3)cc12 [Example 824, 4-(3-ethyl-5-(1′-isopropyl-[1,4′-bipiperidin]-4-yl)-1H-indol-2-yl)-1H-pyrazolo[3,4-b]pyridine]	< 0.1 µM	< 0.1 µM	< 0.1 µM
Cc1cc(-c2[nH]c3ccc(C4CCN(C(=O)CN(C)C5CC5)CC4)cc3c2C(C)C)cn2nnnc12 [Example 483, 2-(cyclopropyl(methyl)amino)-1-(4-(3-isopropyl-2-(8-methyltetrazolo[1,5-a]pyridin-6-yl)-1H-indol-5-yl)piperidin-1-yl)ethan-1-one]	< 0.1 µM	1 to 50 µM	< 0.1 µM
Cc1cc(-c2[nH]c3ccc(C4CCNCC4)cc3c2C(C)C)cn2c(C)cnc12 [Example 121, 6-(3-isopropyl-5-(piperidin-4-yl)-1H-indol-2-yl)-3,8-dimethylimidazo[1,2-a]pyridine]	< 0.1 µM	1 to 50 µM	1 to 50 µM
Cc1cc(-c2[nH]c3ccc(C4CCN(C(=O)CN(C)C)CC4)cc3c2C(C)C)cn2nncc12 [Example 467, 2-(dimethylamino)-1-(4-(3-isopropyl-2-(4-methyl-[1,2,3]triazolo[1,5-a]pyridin-6-yl)-1H-indol-5-yl)piperidin-1-yl)ethan-1-one]	0.1 to 1 µM	1 to 50 µM	1 to 50 µM
CC(C)c1c(-c2cn3cnnc3c(=O)n2C)[nH]c2ccc(C3CCNCC3)cc12 [Example 237, 6-(3-isopropyl-5-(piperidin-4-yl)-1H-indol-2-yl)-7-methyl-[1,2,4]triazolo[4,3-a]pyrazin-8(7H)-one]	> 3.13 µM	1 to 50 µM	> 3.13 µM
CC(C)c1c(-c2cnc3ncccn23)[nH]c2ccc(C3CCN(CC(=O)N(C)C)CC3)cc12 [Example 290, 2-(4-(2-(imidazo[1,2-a]pyrimidin-3-yl)-3-isopropyl-1H-indol-5-yl)piperidin-1-yl)-N,N-dimethylacetamide]	0.1 to 1 µM	1 to 50 µM	< 0.1 µM
Cc1nc2c(C)cc(-c3[nH]c4ccc(C5CCN(CC(=O)N(C)C)CC5)cc4c3C(C)C)cn2c1C [Example 396, 2-(4-(3-isopropyl-2-(2,3,8-trimethylimidazo[1,2-a]pyridin-6-yl)-1H-indol-5-yl)piperidin-1-yl)-N,N-dimethylacetamide]	< 0.1 µM	0.1 to 1 µM	0.1 to 1 µM
CC(C)c1c(-c2ccnc3c2ccn3S(C)(=O)=O)[nH]c2ccc(C3CCNCC3)cc12 [Example 3, 4-(3-isopropyl-5-(piperidin-4-yl)-1h-indol-2-yl)-1-(methylsulfonyl)-1H-pyrrolo[2,3-b]pyridine]	0.1 to 1 µM	0.1 to 1 µM	< 0.1 µM
CC(C)c1c(-c2ccc3ncsc3c2)[nH]c2ccc(C3CCNCC3)cc12 [Example 9, 6-(3-isopropyl-5-(piperidin-4-yl)-1H-indol-2-yl) benzo[d]thiazole]	< 0.1 µM	1 to 50 µM	< 0.1 µM
CC(C)c1c(-c2ccnc3[nH]ncc23)[nH]c2ccc(C3CCN(Cc4ncn(C)n4)CC3)cc12 [Example 865, 4-(3-isopropyl-5-(1-((1-methyl-1H-1,2,4-triazol-3-yl)methyl)piperidin-4-yl)-1H-indol-2-yl)-1H-pyrazolo[3,4-b]pyridine]	< 0.1 µM	1 to 50 µM	< 0.1 µM
CC(C)c1c(-c2cnc3[nH]c(=O)oc3c2)[nH]c2ccc(C3CCNCC3)cc12 [Example 16, 6-(3-isopropyl-5-(piperidin-4-yl)-1H-indol-2-yl)oxazolo[4,5-b]pyridin-2(3H)-one]	0.1 to 1 µM	1 to 50 µM	> 3.13 µM
Cc1cc(-c2[nH]c3ccc(C4CCN(C(=O)CN5CCCCC5)CC4)cc3c2C(C)C)cn2nnnc12 [Example 472, 1-(4-(3-isopropyl-2-(8-methyltetrazolo[1,5-a]pyridin-6-yl)-1H-indol-5-yl)piperidin-1-yl)-2-(piperidin-1-yl)ethan-1-one]	< 0.1 µM	1 to 50 µM	< 0.1 µM
Cc1cc(-c2[nH]c3ccc(C4CCNCC4)cc3c2C(C)C)cn2cc(C(=O)N(C)CCO)nc12 [Example 268, N-(2-hydroxyethyl)-6-(3-isopropyl-5-(piperidin-4-yl)-1H-indol-2-yl)-N,8-dimethylimidazo[1,2-a]pyridine-2-carboxamide]	< 0.1 µM	1 to 50 µM	< 0.1 µM
